Test results taken from the Kinase Knowledgebase extract (Sharma et al. 2016).

How the values were obtained:
[1] = biological target: PIK3CA (human) (UniProt P42336); assay: Assessment of PIK3CA Kinase Activity
[2] = biological target: PIK3CG (human) (UniProt P48736); assay: Assessment of PIK3CG Kinase Activity
[3] = biological target: PIK3CD (Human) (UniProt O00329); assay: Assessment of PIK3CD Kinase Activity
[4] = biological target: PIK3CB (Human) (UniProt P42338); assay: Assessment of PIK3CB Kinase Activity
PIK3CB (Human), sequence (P42338 whole entry, looked up): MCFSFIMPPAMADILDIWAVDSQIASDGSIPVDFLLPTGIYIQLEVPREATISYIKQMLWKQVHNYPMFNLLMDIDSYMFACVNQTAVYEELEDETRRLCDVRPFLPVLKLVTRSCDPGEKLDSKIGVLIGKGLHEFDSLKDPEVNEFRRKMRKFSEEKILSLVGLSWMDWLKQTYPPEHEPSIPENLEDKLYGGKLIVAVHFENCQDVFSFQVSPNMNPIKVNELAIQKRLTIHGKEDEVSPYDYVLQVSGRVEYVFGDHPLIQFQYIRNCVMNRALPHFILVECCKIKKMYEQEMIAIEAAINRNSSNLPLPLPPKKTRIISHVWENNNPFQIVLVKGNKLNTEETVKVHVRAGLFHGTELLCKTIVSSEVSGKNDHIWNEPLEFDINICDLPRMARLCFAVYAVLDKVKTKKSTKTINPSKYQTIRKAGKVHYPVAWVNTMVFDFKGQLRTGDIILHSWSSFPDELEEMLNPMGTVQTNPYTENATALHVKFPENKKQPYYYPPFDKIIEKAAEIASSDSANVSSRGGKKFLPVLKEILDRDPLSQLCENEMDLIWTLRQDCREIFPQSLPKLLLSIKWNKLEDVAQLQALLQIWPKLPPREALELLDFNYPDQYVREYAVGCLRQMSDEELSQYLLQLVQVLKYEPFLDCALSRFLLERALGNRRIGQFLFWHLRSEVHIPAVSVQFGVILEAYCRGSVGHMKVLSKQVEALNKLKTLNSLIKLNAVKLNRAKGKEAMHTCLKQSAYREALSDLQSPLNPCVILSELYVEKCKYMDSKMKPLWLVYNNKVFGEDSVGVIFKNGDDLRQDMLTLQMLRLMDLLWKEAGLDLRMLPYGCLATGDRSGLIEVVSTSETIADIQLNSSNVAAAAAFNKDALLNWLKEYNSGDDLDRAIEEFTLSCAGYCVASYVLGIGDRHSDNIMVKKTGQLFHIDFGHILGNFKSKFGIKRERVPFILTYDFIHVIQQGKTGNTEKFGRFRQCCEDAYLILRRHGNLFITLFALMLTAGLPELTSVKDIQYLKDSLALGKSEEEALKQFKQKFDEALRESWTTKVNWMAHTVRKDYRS

PIK3CG (human), sequence (P48736 whole entry, looked up): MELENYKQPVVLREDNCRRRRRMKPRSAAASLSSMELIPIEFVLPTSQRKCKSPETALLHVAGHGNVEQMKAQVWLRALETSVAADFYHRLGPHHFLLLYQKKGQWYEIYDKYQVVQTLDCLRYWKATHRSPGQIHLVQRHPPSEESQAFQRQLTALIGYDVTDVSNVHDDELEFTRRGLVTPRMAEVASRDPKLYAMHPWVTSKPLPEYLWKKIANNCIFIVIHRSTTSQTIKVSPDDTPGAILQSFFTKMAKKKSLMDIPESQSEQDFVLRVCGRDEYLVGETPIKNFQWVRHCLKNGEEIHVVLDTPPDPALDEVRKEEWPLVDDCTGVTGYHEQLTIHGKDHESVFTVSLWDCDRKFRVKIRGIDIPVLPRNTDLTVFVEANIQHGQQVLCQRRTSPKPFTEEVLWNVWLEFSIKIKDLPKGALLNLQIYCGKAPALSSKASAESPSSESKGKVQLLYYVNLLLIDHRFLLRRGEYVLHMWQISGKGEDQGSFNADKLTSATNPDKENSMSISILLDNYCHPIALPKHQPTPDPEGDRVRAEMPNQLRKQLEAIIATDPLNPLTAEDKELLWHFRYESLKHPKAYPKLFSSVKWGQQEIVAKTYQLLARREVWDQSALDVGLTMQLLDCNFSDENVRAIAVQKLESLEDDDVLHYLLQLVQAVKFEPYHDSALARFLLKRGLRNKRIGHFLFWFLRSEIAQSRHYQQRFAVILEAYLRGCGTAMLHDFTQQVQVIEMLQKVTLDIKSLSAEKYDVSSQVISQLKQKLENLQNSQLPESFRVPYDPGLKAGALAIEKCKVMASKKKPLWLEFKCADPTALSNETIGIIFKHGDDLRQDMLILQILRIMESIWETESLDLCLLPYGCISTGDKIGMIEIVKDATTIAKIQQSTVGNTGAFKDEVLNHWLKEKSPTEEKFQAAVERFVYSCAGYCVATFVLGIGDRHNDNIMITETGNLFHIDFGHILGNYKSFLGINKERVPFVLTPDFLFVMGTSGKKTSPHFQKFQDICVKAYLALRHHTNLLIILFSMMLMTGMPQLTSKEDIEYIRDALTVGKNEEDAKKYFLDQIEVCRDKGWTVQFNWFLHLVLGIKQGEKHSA
PIK3CD (Human), sequence (O00329 whole entry, looked up): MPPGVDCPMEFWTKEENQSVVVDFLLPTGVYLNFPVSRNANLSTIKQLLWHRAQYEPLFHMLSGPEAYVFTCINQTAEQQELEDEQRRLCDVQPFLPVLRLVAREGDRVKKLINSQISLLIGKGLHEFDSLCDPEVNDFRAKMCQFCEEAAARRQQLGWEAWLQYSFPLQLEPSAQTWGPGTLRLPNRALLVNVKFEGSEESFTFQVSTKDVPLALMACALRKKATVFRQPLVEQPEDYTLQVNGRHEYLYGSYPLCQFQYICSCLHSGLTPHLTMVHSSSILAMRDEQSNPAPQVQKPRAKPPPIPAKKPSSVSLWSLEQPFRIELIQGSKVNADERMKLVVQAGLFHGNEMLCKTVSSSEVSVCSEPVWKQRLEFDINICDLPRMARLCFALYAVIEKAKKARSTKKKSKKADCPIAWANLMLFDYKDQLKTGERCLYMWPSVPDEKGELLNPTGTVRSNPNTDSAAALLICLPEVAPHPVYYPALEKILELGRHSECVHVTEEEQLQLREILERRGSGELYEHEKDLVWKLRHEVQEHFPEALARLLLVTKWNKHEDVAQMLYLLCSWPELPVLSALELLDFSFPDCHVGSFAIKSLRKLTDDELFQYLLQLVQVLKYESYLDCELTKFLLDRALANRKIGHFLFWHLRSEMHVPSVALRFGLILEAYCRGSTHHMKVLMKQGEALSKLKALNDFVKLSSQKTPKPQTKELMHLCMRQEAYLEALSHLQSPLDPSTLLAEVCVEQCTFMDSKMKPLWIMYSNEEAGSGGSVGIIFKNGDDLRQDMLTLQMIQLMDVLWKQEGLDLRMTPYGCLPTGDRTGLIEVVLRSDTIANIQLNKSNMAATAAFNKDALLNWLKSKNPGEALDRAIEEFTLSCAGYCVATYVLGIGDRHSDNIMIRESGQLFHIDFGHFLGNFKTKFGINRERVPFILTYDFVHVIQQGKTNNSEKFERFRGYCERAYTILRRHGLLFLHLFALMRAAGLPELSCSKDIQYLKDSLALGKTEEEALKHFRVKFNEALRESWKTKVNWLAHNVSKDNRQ
PIK3CA (human), sequence (P42336 whole entry, looked up): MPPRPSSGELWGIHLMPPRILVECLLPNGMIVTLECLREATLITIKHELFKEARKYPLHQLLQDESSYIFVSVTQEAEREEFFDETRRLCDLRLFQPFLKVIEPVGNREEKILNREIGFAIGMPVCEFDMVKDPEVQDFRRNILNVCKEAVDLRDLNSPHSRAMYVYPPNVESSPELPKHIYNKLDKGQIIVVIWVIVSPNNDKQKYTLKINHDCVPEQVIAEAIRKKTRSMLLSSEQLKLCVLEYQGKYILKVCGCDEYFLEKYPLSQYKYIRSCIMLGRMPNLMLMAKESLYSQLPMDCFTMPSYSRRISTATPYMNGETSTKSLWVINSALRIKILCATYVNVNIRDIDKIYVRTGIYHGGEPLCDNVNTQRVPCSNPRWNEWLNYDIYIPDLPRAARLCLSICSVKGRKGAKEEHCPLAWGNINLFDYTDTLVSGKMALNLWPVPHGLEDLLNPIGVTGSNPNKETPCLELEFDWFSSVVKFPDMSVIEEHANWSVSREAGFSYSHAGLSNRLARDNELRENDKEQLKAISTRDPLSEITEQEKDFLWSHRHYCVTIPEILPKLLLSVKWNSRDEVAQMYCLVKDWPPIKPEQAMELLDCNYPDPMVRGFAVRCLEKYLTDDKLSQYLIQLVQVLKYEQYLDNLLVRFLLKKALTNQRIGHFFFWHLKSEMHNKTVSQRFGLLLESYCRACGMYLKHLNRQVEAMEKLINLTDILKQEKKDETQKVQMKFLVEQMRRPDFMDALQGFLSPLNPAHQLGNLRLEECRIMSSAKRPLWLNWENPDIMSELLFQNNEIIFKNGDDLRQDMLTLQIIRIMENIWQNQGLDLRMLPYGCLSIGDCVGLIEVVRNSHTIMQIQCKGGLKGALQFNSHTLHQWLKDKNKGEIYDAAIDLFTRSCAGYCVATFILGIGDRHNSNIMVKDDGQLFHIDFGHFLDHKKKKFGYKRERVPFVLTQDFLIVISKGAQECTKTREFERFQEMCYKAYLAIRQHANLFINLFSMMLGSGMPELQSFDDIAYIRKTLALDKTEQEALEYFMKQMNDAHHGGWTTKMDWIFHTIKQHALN

| Structure (SMILES) | IC50 [1] | IC50 [2] | IC50 [3] | IC50 [4] |
| --- | --- | --- | --- | --- |
| COc1cccc(-c2nc(N3CCOCC3)c3sc(CN(C)c4ncc(C(=O)NO)cn4)cc3n2)c1 | 100 to 1000 nM |  |  |  |
| O=C(O)CN(Cc1cc2nc(-c3cccc4[nH]ncc34)nc(N3CCOCC3)c2s1)c1ncc(C(=O)NO)cn1 | < 100 nM |  |  |  |
| CN(Cc1cc2nc(-c3ccc(CO)cc3)nc(N3CCOCC3)c2s1)c1ncc(C(=O)NO)cn1 | 100 to 1000 nM |  |  |  |
| CN(Cc1cc2nc(-c3cccc4[nH]ncc34)nc(N3CCOCC3)c2s1)CC1CCN(c2ncc(C(=O)NO)cn2)CC1 | < 100 nM |  |  |  |
| CN(Cc1cc2nc(-c3ccc(C(N)=O)cc3)nc(N3CCOCC3)c2s1)c1ncc(C(=O)NO)cn1 | 100 to 1000 nM |  |  |  |
| O=C(CCCNCc1cc2nc(-c3cccc4[nH]ncc34)nc(N3CCOCC3)c2s1)NO | 100 to 1000 nM |  |  |  |
| CN(Cc1cc2nc(-c3ccc(N)cc3)nc(N3CCOCC3)c2s1)c1ncc(C(=O)NO)cn1 | < 100 nM |  |  |  |
| CN(Cc1cc2nc(-c3cccc(CO)c3)nc(N3CCOCC3)c2s1)c1ncc(C(=O)NO)cn1 | < 100 nM |  |  |  |
| CNc1ncc(-c2nc(N3CCOCC3)c3sc(CN(C)c4ncc(C(=O)NO)cn4)cc3n2)cn1 | < 100 nM |  |  |  |

Second part, the compound after the results:

| IC50 [1] | IC50 [2] | IC50 [3] | IC50 [4] | Structure (SMILES) |
| --- | --- | --- | --- | --- |
| < 100 nM | < 100 nM | < 100 nM | < 100 nM | O=C(NO)c1cnc(NCc2cc3nc(-c4cccc5[nH]ncc45)nc(N4CCOCC4)c3s2)nc1 |
| < 100 nM | < 100 nM | < 100 nM | < 100 nM | CN(Cc1cc2nc(-c3cccc4[nH]ncc34)nc(N3CCOCC3)c2s1)c1ncc(C(=O)NO)cn1 |
| < 100 nM | < 100 nM | 100 to 1000 nM | < 100 nM | O=C(NO)c1cnc(N2CCN(Cc3cc4nc(-c5cccc6[nH]ncc56)nc(N5CCOCC5)c4s3)CC2)nc1 |
| < 100 nM |  |  | < 100 nM | O=C(NO)c1cnc(N(CCO)Cc2cc3nc(-c4cccc5[nH]ncc45)nc(N4CCOCC4)c3s2)nc1 |
| < 100 nM |  |  |  | CC(=O)NCCN(Cc1cc2nc(-c3cccc4[nH]ncc34)nc(N3CCOCC3)c2s1)c1ncc(C(=O)NO)cn1 |
| < 100 nM |  |  |  | CCc1ncc(-c2nc(N3CCOCC3)c3sc(CN(C)c4ncc(C(=O)NO)cn4)cc3n2)cn1 |
| < 100 nM |  |  |  | CN(Cc1cc2nc(-c3cnc(C(N)=O)nc3)nc(N3CCOCC3)c2s1)c1ncc(C(=O)NO)cn1 |
| < 100 nM |  |  |  | Cc1nc(N)ncc1-c1nc(N2CCOCC2)c2sc(CN(C)c3ncc(C(=O)NO)cn3)cc2n1 |
